Source: article PMC8549013 (Neuropharmacology, 2021)

Experiments:
hDAT = conditions: same technique, ref Steele and Eltit, 2019; cited from earlier work
wt hDAT = wt hDAT (Homo sapiens, UniProt Q01959); assay: MAT-Ca2+ assay: inhibition of DA-induced Ca2+ signals; type: cell-based; conditions: DA 10 μM; for pIC50 ± SEM: ~35°C, Table 2
wt dDAT = wt dDAT (Drosophila melanogaster, UniProt Q7K4Y6); assay: as above; type: cell-based; conditions: DA 10 μM; for pIC50 ± SEM: bottom of fit constrained to zero for MDPV
P323V dDAT mutant = P323V dDAT mutant (Drosophila melanogaster, UniProt Q7K4Y6, P323V); assay: as above; type: cell-based
A117S dDAT mutant = A117S dDAT mutant (Drosophila melanogaster, UniProt Q7K4Y6, A117S); assay: as above; type: cell-based
F318C dDAT mutant = F318C dDAT mutant (Drosophila melanogaster, UniProt Q7K4Y6, F318C); assay: as above; type: cell-based
D121G dDAT mutant = D121G dDAT mutant (Drosophila melanogaster, UniProt Q7K4Y6, D121G); assay: as above; type: cell-based
A117S/D121G dDAT mutant = A117S/D121G dDAT mutant (Drosophila melanogaster, UniProt Q7K4Y6, A117S/D121G); assay: as above; type: cell-based
[1] = target: A117S/D121G/P323V dDAT (triple dDAT mutant) (Drosophila melanogaster, UniProt Q7K4Y6, A117S/D121G/P323V); assay: as above; type: cell-based
[2] = target: A117S/D121G/P323V/F318C dDAT (quadruple dDAT mutant) (Drosophila melanogaster, UniProt Q7K4Y6, A117S/D121G/F318C/P323V); assay: as above; type: cell-based
NET = conditions: rat brain synaptosomes; ref Gannon et al., 2018; cited from earlier work
[3] = tested on: human dopamine transporter (hDAT); conditions: ref Baumann et al., 2013; Cameron et al., 2013b; Steele and Eltit, 2019; cited from earlier work
[4] = Table 1 dataset, without DA pre-pulse
[5] = Table 2 dataset, with DA pre-pulse

Row | Compound | IC50 (wt hDAT) | pIC50 ± SEM (wt hDAT) | IC50 (wt dDAT) | pIC50 ± SEM (wt dDAT) | IC50 ([1]; Table 2 dataset) | IC50 [1, 5] | pIC50 ± SEM [1, 5] | IC50 [2, 5] | pIC50 ± SEM [2, 5] | weaker inhibiting uptake at NET than at DAT (NET) | also measured
1 | NCCc1ccc(O)c(O)c1 [DA, dopamine] | – | – | – | – | – | – | – | – | – | – | pEC50 of DA to produce Ca2+ signals (hDAT): 5.89 ± 0.04
2 | CCCC(C(=O)c1ccc2c(c1)OCO2)N1CCCC1 (stereo not drawn) [MDPV, 3,4-Methylenedioxypyrovalerone] | 34 nM | 7.47 ± 0.01 M | 27400 nM | 4.56 ± 0.02 M | 1210 nM | 1210 nM | 5.92 ± 0.02 M | 251 nM | 6.60 ± 0.04 M | ~ 4 fold | IC50 (P323V dDAT mutant; P323V dDAT): 9690 nM; pIC50 ± SEM (P323V dDAT mutant; P323V dDAT): 5.01 ± 0.03 M; improvement in potency vs wt dDAT (P323V dDAT mutant; P323V dDAT vs wt dDAT): ~ 3 fold; IC50 (A117S dDAT mutant; A117S dDAT): 8390 nM; pIC50 ± SEM (A117S dDAT mutant; A117S dDAT): 5.08 ± 0.04 M; improvement in potency vs wt dDAT (A117S dDAT mutant; A117S dDAT vs wt dDAT): ~ 3 fold; IC50 (F318C dDAT mutant; F318C dDAT): 8240 nM; pIC50 ± SEM (F318C dDAT mutant; F318C dDAT): 5.08 ± 0.02 M; improvement in potency vs wt dDAT (F318C dDAT mutant; F318C dDAT vs wt dDAT): ~ 3 fold; IC50 (D121G dDAT mutant): 4650 nM; pIC50 ± SEM (D121G dDAT mutant): 5.33 ± 0.04 M; IC50 (A117S/D121G dDAT mutant): 2210 nM; pIC50 ± SEM (A117S/D121G dDAT mutant): 5.66 ± 0.04 M; IC50 ([1]; Table 1 dataset): 1180 nM; IC50 [1, 4]: 1180 nM; pIC50 ± SEM [1, 4]: 5.93 ± 0.02 M; IC50 ([2]; Table 1 dataset): 250 nM; IC50 [2, 4]: 253 nM; pIC50 ± SEM [2, 4]: 6.60 ± 0.03 M; more potent than cocaine in blocking DA uptake through DAT [3]: ~ 50 fold
3 | CCCC(C(=O)c1ccccc1)N1CCCC1 (stereo not drawn) [α-PVP, α-pyrrolidinovalerophenone] | 51 nM | 7.29 ± 0.01 M | 20700 nM | 4.68 ± 0.03 M | 1530 nM | 1530 nM | 5.82 ± 0.03 M | 1090 nM | 5.96 ± 0.03 M | equipotent | IC50 ([2]; Table 2 dataset): 1090 nM
4 | CC(C(=O)c1ccc2c(c1)OCO2)N1CCCC1 (stereo not drawn) [MDPPP, 3,4-methylenedioxy-α-pyrrolidinopropiophenone] | 3420 nM | 5.47 ± 0.02 M | > 30000 nM | Inactive | – | 16000 nM | 4.80 ± 0.02 M | 13000 nM | 4.89 ± 0.01 M | ~ 5 fold | –
